Assay results as given in patent publication US7897582B2, “Oligonucleotide compositions and methods for the modulation of the expression of B7 protein” (Isis Pharmaceuticals, Inc., priority 2003, dated 2011).
Strand notation (5' to 3'): a small letter for the sugar, then the base; units joined by * are phosphorothioate-linked, units joined directly phosphodiester-linked; [ ] holds rarer units or linkages, { } end groups; capitals alone tell only the bases. e = 2'-O-(2-methoxyethyl) (MOE); [5mC] = 5-methylcytosine; d = 2'-deoxy (DNA)

How the values were obtained:
human B7-1 = experiment: Cell surface expression of B7-1 in pcB7-1-transfected COS-7 cells by flow cytometry; assay type: cell-based; settings: for % B7-1 EXPRESSION: human B7 cell surface expression, Table 16
Method: The ability of oligonucleotides to inhibit B7-1 expression was evaluated by measuring the cell surface expression of B7-1 in transfected COS-7 cells by flow cytometry.
(§1) A T-175 flask was seeded at 75% confluency with COS-7 cells (ATCC accession No. CRL 1651). The plasmid pcB7-1 was introduced into cells by standard calcium phosphate transfection. Following a 4 hour transfection, the cells were trypsinized and seeded in 12-well dishes at 80% confluency. The cells were allowed to adhere to the plastic for 1 hour and were then washed with phosphate-buffered saline (PBS). OptiMEM™ (GIBCO-BRL, Gaithersburg, Md.) medium was added along with 15 μg/mL of Lipofectin™ (GIBCO-BRL, Gaithersburg, Md.) and oligonucleotide at the indicated concentrations. After four additional hours, the cells were washed with phosphate buffered saline (PBS) and incubated with fresh oligonucleotide at the same concentration in DMEM (Dulbecco et al., Virol., 1959, 8, 396; Smith et al., Virol., 1960, 12, 185) with 10% fetal calf sera (FCS).
(§2) In order to monitor the effects of oligonucleotides on cell surface expression of B7-1, treated COS-7 cells were harvested by brief trypsinization 24-48 hours after oligonucleotide treatment. The cells were washed with PBS, then resuspended in 100 μL of staining buffer (PBS, 0.2% BSA, 0.1% azide) with 5 μL conjugated anti-B7-1-antibody (i.e., anti-hCD80-FITC, Ancell, Bayport, Minn.; FITC: fluorescein isothiocyanate). The cells were stained for 30 minutes at 4° C., washed with PBS, resuspended in 300 μL containing 0.5% paraformaldehyde. Cells were harvested and the fluorescence profiles were determined using a flow cytometer.
(§3) B7 antisense oligonucleotides were tested for their effect on cell surface expression of both B7-1 and B7-2. Cell surface expression was measured as described in Example 1. Experiments were done for both human B7 and mouse B7.
The oligonucleotides were screened as described in Example 2 except that the concentration of oligonucleotide was varied as shown in Table 18.

human B7-2 = experiment: Cell surface expression of B7-2 in transfected COS-7 cells by flow cytometry; assay type: cell-based; settings: for % Surface Inhibition / % Surface Expression: COS-7 cells, B7-2 cell surface; for % Surface Expression: basal = 100%; for % B7-2 EXPRESSION: human B7 cell surface expression, Table 16
Method: as §1, §2
In an initial screen, the ability of hB7-2 oligonucleotides to inhibit B7-2 expression was evaluated by measuring the cell surface expression of B7-2 in transfected COS-7 cells by flow cytometry. The methods used were similar to those given in Example 2, with the exceptions that (1) COS-7 cells were transfected with the plasmids pbcB7-2 or BBG-58, a human ICAM-1 (CD54) expression vector (R&D Systems, Minneapolis, Minn.) introduced into cells by standard calcium phosphate transfection, (2) the oligonucleotides used were those described in Table 2, and (3) a conjugated anti-B7-2 antibody (i.e., anti-hCD86-FITC or anti-CD86-PE, PharMingen, San Diego, Calif.; PE: phycoerythrin) was used during flow cytometry.
as §3
The oligonucleotides were screened as described in Example 2 except that the concentration of oligonucleotide was varied as shown in Table 19.

hB7-2 mRNA = experiment: Ribonuclease protection assay of hB7-2 mRNA in transfected COS-7 cells; assay type: cell-based, human
Method: For ribonuclease protection assays, cells were harvested 18 hours after completion of oligonucleotide treatment using a Totally RNA™ kit (Ambion, Austin, Tex.). The probes for the assay were generated from plasmids pcB7-2 (linearized by digestion with Bgl II) and pTRI-b-actin (Ambion Inc., Austin, Tex.). In vitro transcription of the linearized plasmid from the SP6 promoter was performed in the presence of α-^32P-UTP (800 Ci/mmole) yielding an antisense RNA complementary to the 3′ end of B7-2 (position 1044-1391). The probe was gel-purified after treatment with DNase I to remove DNA template. Ribonuclease protection assays were carried out using an RPA II™ kit (Ambion) according to the manufacturer's directions. Total RNA (5 μg) was hybridized overnight, at 42° C., with 10^5 cpm of the B7-2 probe or a control beta-actin probe. The hybridization reaction was then treated, at 37° C. for 30 minutes, with 0.4 units of RNase A and 2 units of RNase T1. Protected RNA was precipitated, resuspended in 10 μL of gel loading buffer and electrophoresed on a 6% acrylamide gel with 50% w/v urea at 20 W. The gel was then exposed and the lanes quantitated using a PhosphorImager (Molecular Dynamics, Sunnyvale, Calif.) essentially according to the manufacturer's instructions.
The oligonucleotides were screened as described in Example 4 except that the concentration of oligonucleotide was varied as shown in Table 13. Mismatch control oligonucleotides were included.

Human B7-1 mRNA = Human B7-1 mRNA expression in electroporated, LPS-induced THP-1 cells; assay type: cell-based; settings: THP-1 cells electroporated at 10 micromolar oligonucleotide, LPS 1 μg/ml 16 hours
Description: The human promonocytic leukaemia cell line, THP-1 (American Type Culture Collection, Manassas, Va.) was maintained in RPMI 1640 growth media supplemented with 10% fetal calf serum (FCS; Life Technologies, Rockville, Md.). A total of 1×10^7 cells were electroporated at an oligonucleotide concentration of 10 micromolar in 2 mm cuvettes, using an Electrocell Manipulator 600 instrument (Biotechnologies and Experimental Research, Inc.) employing 200 V, 1000 μF. Electroporated cells were then transferred to petri dishes and allowed to recover for 16 hrs. Cells were then induced with LPS at a final concentration of 1 μg/ml for 16 hours. RNA was isolated and processed as described in previous examples.

[1] = COS-7 cells, B7-2 mRNA, oligonucleotide dose 10 nM
[2] = COS-7 cells, B7-2 mRNA, oligonucleotide dose 10 nM, basal = 100%
[3] = COS-7 cells, B7-2 mRNA, oligonucleotide dose 30 nM
[4] = COS-7 cells, B7-2 mRNA, oligonucleotide dose 30 nM, basal = 100%
[5] = COS-7 cells, B7-2 mRNA, oligonucleotide dose 100 nM
[6] = COS-7 cells, B7-2 mRNA, oligonucleotide dose 100 nM, basal = 100%
[7] = COS-7 cells, B7-2 mRNA, oligonucleotide dose 300 nM
[8] = COS-7 cells, B7-2 mRNA, oligonucleotide dose 300 nM, basal = 100%

22284 (eT*eG*e[5mC]*eG*eA*dG*d[5mC]*dT*d[5mC]*d[5mC]*d[5mC]*d[5mC]*dG*dT*dA*e[5mC]*e[5mC]*eT*e[5mC]*e[5mC]; antisense) [compound 22284]
% B7-1 EXPRESSION (human B7-1): 88%
% Surface Inhibition (human B7-2; dose 10 nM): 37%
% Surface Expression (human B7-2; dose 10 nM): 63%
% Surface Inhibition (human B7-2; dose 30 nM): 40%
% Surface Expression (human B7-2; dose 30 nM): 60%
% Surface Inhibition (human B7-2; dose 100 nM): 63%
% Surface Expression (human B7-2; dose 100 nM): 37%
% Surface Inhibition (human B7-2; dose 300 nM): 85%
% Surface Expression (human B7-2; dose 300 nM): 15%
% B7-2 EXPRESSION (human B7-2): 32%
% mRNA INHIBITION (hB7-2 mRNA; [1]): 8%
% mRNA EXPRESSION (hB7-2 mRNA; [2]): 92%
% mRNA INHIBITION (hB7-2 mRNA; [3]): 28%
% mRNA EXPRESSION (hB7-2 mRNA; [4]): 72%
% mRNA INHIBITION (hB7-2 mRNA; [5]): 41%
% mRNA EXPRESSION (hB7-2 mRNA; [6]): 59%
% mRNA INHIBITION (hB7-2 mRNA; [7]): 52%
% mRNA EXPRESSION (hB7-2 mRNA; [8]): 48%
% mRNA EXPRESSION (hB7-2 mRNA; human B7-2 mRNA, Table 12): 30%

22287 (eA*eG*eA*eA*eT*dG*dT*dT*dA*d[5mC]*dT*d[5mC]*dA*dG*dT*e[5mC]*e[5mC]*e[5mC]*eA*eT; antisense) [compound 22287]
% B7-1 EXPRESSION (human B7-1): 92%
% Surface Inhibition (human B7-2; dose 10 nM): 7%
% Surface Expression (human B7-2; dose 10 nM): 93%
% Surface Inhibition (human B7-2; dose 30 nM): 40%
% Surface Expression (human B7-2; dose 30 nM): 60%
% Surface Inhibition (human B7-2; dose 100 nM): 68%
% Surface Expression (human B7-2; dose 100 nM): 32%
% Surface Inhibition (human B7-2; dose 300 nM): 85%
% Surface Expression (human B7-2; dose 300 nM): 15%
% B7-2 EXPRESSION (human B7-2): 35%
% mRNA INHIBITION (hB7-2 mRNA; [1]): 7%
% mRNA EXPRESSION (hB7-2 mRNA; [2]): 93%
% mRNA INHIBITION (hB7-2 mRNA; [3]): 21%
% mRNA EXPRESSION (hB7-2 mRNA; [4]): 79%
% mRNA INHIBITION (hB7-2 mRNA; [5]): 34%
% mRNA EXPRESSION (hB7-2 mRNA; [6]): 66%
% mRNA INHIBITION (hB7-2 mRNA; [7]): 55%
% mRNA EXPRESSION (hB7-2 mRNA; [8]): 45%
% mRNA EXPRESSION (hB7-2 mRNA; human B7-2 mRNA, Table 12): 27%

113505 (antisense e[5mC]*eT*eT*e[5mC]*eA*dG*d[5mC]*d[5mC]*dA*dG*dG*dT*dG*dT*dT*e[5mC]*e[5mC]*e[5mC]*eG*e[5mC]) [compound 113505]
% mRNA EXPRESSION (Human B7-1 mRNA): 40%
% mRNA INHIBITION (Human B7-1 mRNA): 60%

113506 (antisense eT*eA*eA*e[5mC]*eG*dT*d[5mC]*dA*d[5mC]*dT*dT*d[5mC]*dA*dG*d[5mC]*e[5mC]*eA*eG*eG*eT) [compound 113506]
% mRNA EXPRESSION (Human B7-1 mRNA): 105%

113507 (antisense eT*eT*e[5mC]*eT*e[5mC]*d[5mC]*dA*dT*dT*dT*dT*d[5mC]*d[5mC]*dA*dA*e[5mC]*e[5mC]*eA*eG*eG) [compound 113507]
% mRNA EXPRESSION (Human B7-1 mRNA): 36%
% mRNA INHIBITION (Human B7-1 mRNA): 64%

113508 (antisense e[5mC]*eT*eG*eT*eT*dG*dT*dG*dT*dT*dG*dA*dT*dG*dG*e[5mC]*eA*eT*eT*eT) [compound 113508]
% mRNA EXPRESSION (Human B7-1 mRNA): 117%

113509 (antisense e[5mC]*eA*eT*eG*eA*dA*dG*d[5mC]*dT*dG*dT*dG*dG*dT*dT*eG*eG*eT*eT*eG) [compound 113509]
% mRNA EXPRESSION (Human B7-1 mRNA): 62%
% mRNA INHIBITION (Human B7-1 mRNA): 38%

113510 (antisense eA*eG*eG*eA*eA*dA*dA*dT*dG*d[5mC]*dT*d[5mC]*dT*dT*dG*e[5mC]*eT*eT*eG*eG) [compound 113510]
% mRNA EXPRESSION (Human B7-1 mRNA): 43%
% mRNA INHIBITION (Human B7-1 mRNA): 57%

113511 (antisense eT*eG*eG*eG*eA*dG*d[5mC]*dA*dG*dG*dT*dT*dA*dT*d[5mC]*eA*eG*eG*eA*eA) [compound 113511]
% mRNA EXPRESSION (Human B7-1 mRNA): 48%
% mRNA INHIBITION (Human B7-1 mRNA): 52%

113512 (antisense eT*eA*eA*eG*eG*dT*dA*dA*dT*dG*dG*d[5mC]*d[5mC]*d[5mC]*dA*eG*eG*eA*eT*eG) [compound 113512]
% mRNA EXPRESSION (Human B7-1 mRNA): 73%
% mRNA INHIBITION (Human B7-1 mRNA): 27%

113513 (antisense eG*eG*eT*e[5mC]*eA*dG*dG*d[5mC]*dA*dG*d[5mC]*dA*dT*dA*dT*e[5mC]*eA*e[5mC]*eA*eA) [compound 113513]
% mRNA EXPRESSION (Human B7-1 mRNA): 48%
% mRNA INHIBITION (Human B7-1 mRNA): 52%

113515 (antisense eA*eG*eA*eT*e[5mC]*dT*dT*dT*dT*d[5mC]*dA*dG*d[5mC]*d[5mC]*d[5mC]*e[5mC]*eT*eT*eG*e[5mC]) [compound 113515]
% mRNA EXPRESSION (Human B7-1 mRNA): 184%

113516 (antisense eT*eT*eT*eG*eT*dT*dA*dA*dG*dG*dG*dA*dA*dG*dA*eA*eT*eG*e[5mC]*e[5mC]) [compound 113516]
% mRNA EXPRESSION (Human B7-1 mRNA): 83%
% mRNA INHIBITION (Human B7-1 mRNA): 17%

113517 (antisense eA*eA*eA*eG*eG*dA*dG*dA*dG*dG*dG*dA*dT*dG*d[5mC]*e[5mC]*eA*eG*e[5mC]*e[5mC]) [compound 113517]
% mRNA EXPRESSION (Human B7-1 mRNA): 201%

113518 (antisense e[5mC]*eA*eA*eG*eA*d[5mC]*dA*dA*dT*dT*d[5mC]*dA*dA*dG*dA*eT*eG*eG*e[5mC]*eA) [compound 113518]
% mRNA EXPRESSION (Human B7-1 mRNA): 97%
% mRNA INHIBITION (Human B7-1 mRNA): 03%

ISIS 13800: phosphorothioate oligonucleotide to human B7-1 mRNA 0158-0177; 5′ UTR; SEQ ID NO: 25 (antisense dA*dC*dA*dC*dA*dC*dA*dG*dA*dG*dA*dT*dT*dG*dG*dA*dG*dG*dG*dT)
inhibition of B7-1 expression (human B7-1; COS-7 cells transiently expressing B7-1 cDNA, FIG. 1): essentially no inhibition
inhibition of cell surface expression of B7-1 at various concentrations (human B7-1; dose response, FIG. 2): essentially inactive

ISIS 13872: scrambled control of ISIS 13812; SEQ ID NO: 52 (SEQ ID NO: 37) (antisense dA*dG*dT*dC*dC*dT*dA*dC*dT*dA*dC*dC*dA*dG*dC*dC*dG*dC*dC*dT) [reference compound]
effect on B7-1 expression (specificity) (human B7-1; FIG. 5): essentially no activity
effect on B7-2 expression (specificity) (human B7-2; FIG. 5): essentially no activity
